# In US9452177B2, “Vitamin D compounds and methods for reducing ocular hypertension (OHT)” (Wisconsin Alumni Research Foundation, priority 2008, dated 2016):
# Entries after “also recorded” stand apart in the source; their conditions may differ.
# How the values were obtained:
# [1] = test system: eyes of ocular normotensive cynomolgus monkeys; assay: Intraocular pressure (IOP) by Goldmann applanation tonometry after 5 twice-daily unilateral topical treatments; format: in vivo, cynomolgus monkeys (Macaca fascicularis); conditions: Example 1; for rank order of ocular hypotensive effect: 5 uniocular topical treatments at the same dose; for IOP after the 5th treatment / IOP prior to the 5th treatment compared with baseline: AGR 5 μg n=4, 2MD 6 μg n=8; for IOP prior to the 5th treatment compared with baseline: both treated and control eye
# Protocol: Ocular normotensive adult cynomolgus monkeys (Macaca fascicularis), of either sex, weighing 3-7 kg were anesthetized with i.m. ketamine HCl (3-25 mg/kg, supplemented with 1-10 mg/kg) for IOP and topical drop administration. All monkeys were free of any ocular abnormalities according to slit lamp biomicroscopy at the time measurements were taken. The monkeys were provided by the Primate Center at the University of Wisconsin-Madison. All experiments were done in accordance with the ARVO Statement on the Use of Animals in Ophthalmic and Vision Research.
# (§1) The intraocular pressure (IOP) was determined with a “minified” Goldmann applanation tonometer [Kaufman, 1980] using HALF AND HALF™ creamer solution (Borden) as the tear film indicator [Croft, 1997] with the monkey lying prone in a head holder and the eyes positioned 4 to 8 cm above the heart. All monkeys were examined by slit-lamp before the first IOP measurement in each protocol. For each eye, two or three IOP measurements were averaged as a baseline.
# Under ketamine anesthesia (KETAJECT™, Phoenix Pharmaceutical, St Joseph, Mo. (3-25 mg/kg i.m., supplemented with 1-10 mg/kg i.m. as needed) baseline IOP was determined, usually between 7:30 and 9 am (2 readings, 5 minutes apart; if IOP baseline measurements were not within 2-3 mm Hg of each other, a 3rd reading was taken 5 min later). Baseline IOP was at least 15 mmHg if possible. A baseline blood sample was taken from the femoral artery or vein, or sometimes the brachial vein (1-2 ml). This was allowed to clot and then spun down (3000 rpm for 10 min, Damon/IEC NH-SII centrifuge) and the serum removed and frozen at −20 C for no more than 1 week. Baseline systolic, diastolic and mean arterial pressure as well as heart rate were recorded with the Dinamap monitor from a cuff placed around the arm or the leg.
# After baseline measurements, the monkey was place supine with the eye pointing up and the eyelid held open. A 5 μl drop of test material or vehicle was delivered to opposite eyes. The eyelid was held open for at least 30 sec and the eye was maintained in the upward position for an additional 30 sec. The monkey was then returned to its cage and allowed to wake up. In the afternoon, at least 6 hours after the morning treatment, another treatment was administered. On the second day, dosing was repeated in the am and pm.
# (§2) On the 3th day, prior to the 5th treatment, baseline IOP, biomicroscopy and MAP were determined. Preliminary studies indicated an effect was observed after these treatments but not after a single treatment. Following the 5th dose, IOP was measured at 1, 2, 3, 4, 5, 6, 7, 8, 12 (if possible), 24, and sometimes 48 hr. Biomicroscopy was done at 1, 3, 6, 24 and sometimes 48 hr. MAP on day 3 (some protocols) was determined at 1, 2, 3, 4, 5, 6, 7, 8, 24 and sometimes 48 hr if possible. Blood samples after the 5th treatment were collected at 6, 24, and sometimes 48 hr. For some protocols, IOP was also measured prior to each treatment; MAP was measured prior to the morning treatment; blood was collected prior to the afternoon treatment. Subsequent screening protocols will not include the MAP and blood collections and will only measure IOP at baseline and prior to and for 1-6 hr after the 5th treatment.
# Adult cynomolgus monkeys (Macaca fascicularis) of either sex were anesthetized with intramuscular ketamine HCl (10 mg/kg initial, 5 mg/kg supplemental). Baseline pretreatment IOP was determined by Goldmann applanation tonometry [Kaufman, 1980] with […] used as a tear film indicator [Croft, 1997]. Two baseline IOP measurements were taken 5 minutes apart. […]
# [2] = Ocular inflammation by slit-lamp biomicroscopy; format: in vivo, cynomolgus monkeys (Macaca fascicularis); conditions: Example 1; 5 topical treatments, 5 μg (2MD 6 μg)
# Protocol: as §1, §2
# Baseline pretreatment IOP was determined by Goldmann applanation tonometry [Kaufman, 1980] with […] used as a tear film indicator [Croft, 1997]. Two baseline IOP measurements were taken 5 minutes apart. Monkeys were then treated topically with 5 μl of 1,25-dihydroxyvitamin D3 (1,25-(OH)2D3) (0.1-5 μg) to one eye and vehicle (propylene glycol) to the opposite eye twice a day for 5 treatments total. […] IOP was also measured prior to the afternoon treatment. On the third day, IOP was measured prior to the morning treatment. Following the fifth treatment, IOP was measured hourly for 8 hours and, in some cases, also at 12, 24, and 48 hours. […]
SMILES,rank order of ocular hypotensive effect [1],IOP after the 5th treatment [1],IOP prior to the 5th treatment compared with baseline [1],ocular inflammation [2],"IOP in treated eye compared with control eye ([1]; 5 μg (2MD 6 μg) in 5 μl propylene glycol one eye, vehicle opposite eye)","IOP in the control (vehicle, contralateral) eye after the 5th treatment ([1]; AGR 5 μg in opposite eye)"
"C=C1[C@H](O)CC(=C/C=C2\CCC[C@]3(C)[C@@H]([C@@H](C)CCCC(C)(C)O)CC[C@@H]23)C[C@H]1O [2MD, 2-methylene-19-nor-(20S)-1α,25-dihydroxyvitamin D3]","1,25(OH)2D3>2MD>AGR",gradually decreased over the next 8 hours similar to the diurnal decline seen with vehicle alone; also recorded: small drug effect at 6 and 7 hours,no different than at baseline,no ocular inflammation at any time-point,,
"CC(CCCC(C)(C)O)C1CCC2C(=CC=C3CC(O)C(=CCCO)C(O)C3)CCCC21C (stereo not drawn) [AGR, 2-(3′-hydroxypropylidene)-19-nor-1α,25-dihydroxyvitamin D3]","1,25(OH)2D3>2MD>AGR",not significantly decreased in the treated eye except at the 3 hr time point,no different than at baseline,no ocular inflammation at any time-point,no difference between the eyes at any time-point,no change in IOP in the control eye
